According to patent publication US12605360B2, “Compositions and methods using xanthan gum to stabilize at least one urolithin in an aqueous matrix” (SOCIETE DES PRODUITS NESTLE S.A., priority 2020, dated 2026):

Columns and labels:
[1] = Suspension of Urolithin A upon reconstitution of powder in water; assay type: physicochemical
Experimental: • 1. Initially the base selected was brown rice syrup powder to which UA was added. […] UA forms a suspension in oil, so another experiment used brown rice syrup powder with canola oil powder and whey protein.
Specifically, different gums and concentrations of gums were investigated with UA and a filler that was brown rice syrup powder: • 1. Guar gum • 2. PHGG • 3. Combination of guar and xanthan • 4. Acacia gum • 5. Gellan gum • 6. FMC Gum blend • 7. Xanthan gum
Table 1 (below) sets forth the formulations of the samples testing various gums with UA. FIGS. 3A and 3B set forth the results from these samples.
Some embodiments of the compositions disclosed herein include fruit flavor and thus citric acid. […] Table 2 (below) sets forth the formulations of the samples testing various gums with UA and citric acid. FIGS. 4A and 4B sets forth the results from these samples.
For each sample, after mixing the powder with water, five minutes elapsed, then the suspension was mixed again, and then viscosity was measured. Out of the various experiments, xanthan gum provided the best solution of not only keeping UA in suspension but also the desired viscosity, easily dissolved, and no off taste/odor to the product.
A range of xanthan gum amounts were then studied (Table 3 and FIG. 5). […]

[2] = Solubility of Urolithin A; assay type: physicochemical
From the text: The present disclosure addresses the inventors' recognition that Urolithin A (UA) is insoluble in water, such that a powder containing UA as the main functional ingredient presented the challenge of keeping UA in suspension upon reconstitution of the powder with water. In this regard, UA being insoluble promotes settling of UA at the bottom of the reconstitution container almost immediately. The present disclosure includes various ways of stabilizing Urolithin A in an aqueous matrix, such that when a powder containing UA is reconstituted, the UA remains in suspension.
Comparative experimental data was generated to investigate the possibility of stabilization of UA in an aqueous matrix.

suspension of UA in an oil matrix [1]: forms a good suspension | solubility in oil ([2]; oil): sparingly soluble | solubility in water ([2]; water): insoluble
SMILES: O=c1oc2cc(O)ccc2c2ccc(O)cc12 [Urolithin A]
